Results taken from patent US20180153995A1, “USE OF ANTIMICROBIAL POLYMERS FOR RE-SENSITIZATION OF MICROORGANISMS UPON EMERGENCE OF RESISTANCE TO ANTI-MICROBIAL AGENTS” (Technion Research & Development Foundation Limited, priority 2008, published 2018).
Where two headings read alike, the source gives them in different places.

How the values were obtained:
[1] = tested on: E. coli AB301 (wild type); assay: Erythromycin MIC with or without sub-MIC polymer; format: cell-based, Escherichia coli
[2] = tested on: E. coli N281 (L22 mutation); format: cell-based, Escherichia coli; conditions: E. coli N281 L22 mutation
[3] = tested on: E. coli N282 (L4 mutation); format: cell-based, Escherichia coli; conditions: E. coli N282 L4 mutation
ATCC 29213 = assay: microbe, parasite or virus in culture; format: cell-based, Staphylococcus aureus; conditions: Staphylococcus aureus, ATCC29213; read-out: MIC
Description: (§1) MICs were determined by microdilution susceptibility testing in 96-well plates (by Nunc) using inocula of 10^5 bacteria per ml. Cell populations were evaluated by optical density measurements at 620 nm and were calibrated against a set of standards. Hundred (100) μl of a bacterial suspension were added to 100 μl of culture medium (control) or to 100 μl of culture medium containing various polymer concentrations in 2-fold serial dilutions. Inhibition of proliferation was determined by optical density measurements at 620 nm after an incubation period of 24 hours at 37° C.
(§2) The fractionary inhibitory (FIC) concentration index for combinations of two antimicrobial agents was calculated as follows: FIC index=FICA+FICB=A/MICA+B/MICB where A and B are the MIC values of agent A and agent B in the combination, MICA and MICB are the MICs of agent A and agent B alone, and FICA and FICB are the FICs of agent A and agent B.
(§3) The FIC indexes were interpreted as follows: less than 0.5 indicates a clear re-sensitizing effect; from 0.5 to 4 indicates a marginal or null re-sensitizing effect; and over 4 indicates antagonism.

MRSA 15918 = assay: microbe, parasite or virus in culture; format: cell-based, Staphylococcus aureus; conditions: Staphylococcus aureus, MRSA; read-out: MIC
Description: as §1, §2, §3

MRSA 15903 = assay: Sub-MIC time-kill curves (CFU counts); format: cell-based, Staphylococcus aureus
Description: At the specified time points of incubation (37° C. under shaking), cultures were subjected to serial 10-fold dilutions (up to 10^6) by adding 50 μl of sample to 450 μl saline (0.85% NaCl). Cell counts were determined using the drop plate method (three 20-μl drops onto LB-agar plates). Plates were incubated at 37° C. and colonies were counted for the calculation after incubation for 24 hours.

S. aureus ATCC 29213 = conditions: as determined by the Clinical and Laboratory Standard Institute; cited from earlier work

Structure (SMILES): CC[C@H]1OC(=O)[C@H](C)[C@@H](O[C@H]2C[C@@](C)(OC)[C@@H](O)[C@H](C)O2)[C@H](C)[C@@H](O[C@@H]2O[C@H](C)C[C@H](N(C)C)[C@H]2O)[C@](C)(O)C[C@@H](C)C(=O)[C@H](C)[C@@H](O)[C@]1(C)O [Erythromycin, erythromycin]
- Antibiotic MIC ([1]; +¼ MIC C12K(NC8K)5NH2): 32 µg/mL
- Antibiotic MIC ([1]; +¼ MIC C12K(NC8K)7NH2): 32 µg/mL
- Antibiotic MIC ([1]; +½ MIC C12K(NC8K)5NH2): 8 µg/mL
- Antibiotic MIC ([1]; +½ MIC C12K(NC8K)7NH2): 4 to 8 µg/mL
- Antibiotic MIC ([1]; +⅓ MIC C12K(NC8K)5NH2): 16 to 32 µg/mL
- Antibiotic MIC ([1]; +⅓ MIC C12K(NC8K)7NH2): 16 to 32 µg/mL
- Antibiotic MIC ([2]; +¼ MIC C12K(NC8K)5NH2): 512 µg/mL
- Antibiotic MIC ([2]; +¼ MIC C12K(NC8K)7NH2): >512-512 μg/ml
- Antibiotic MIC ([2]; +½ MIC C12K(NC8K)5NH2): 16 to 32 µg/mL
- Antibiotic MIC ([2]; +⅓ MIC C12K(NC8K)7NH2): 512 µg/mL
- Antibiotic MIC ([2]; no OAK, Table 18): >512 µg/mL
- Antibiotic MIC ([2]; no OAK, Table 19): >512 µg/mL
- Antibiotic MIC ([3]; +¼ MIC C12K(NC8K)5NH2): 512 µg/mL
- Antibiotic MIC ([3]; +¼ MIC C12K(NC8K)7NH2): 512 µg/mL
- Antibiotic MIC ([3]; +½ MIC C12K(NC8K)5NH2): 8 to 16 µg/mL
- Antibiotic MIC ([3]; +⅓ MIC C12K(NC8K)7NH2): 512 µg/mL
- Antibiotic MIC ([3]; no OAK, Table 18): 512 µg/mL
- Antibiotic MIC ([3]; no OAK, Table 19): 512 µg/mL

Structure (SMILES): Cc1onc(-c2ccccc2)c1C(=O)N[C@@H]1C(=O)N2[C@@H]1SC(C)(C)[C@@H]2C(=O)O [Oxacillin, oxacillin]
- MIC (ATCC 29213): 0.09 µg/mL
- MIC (MRSA 15918): 64 µg/mL
- reduction of bacterial counts compared to the most active single agent (MRSA 15903; 24 hours, oxacillin 0.78 μM + NC12(KNC12K)2NH2 2.1 μM): 4.7 log10 CFU/ml
- surviving organisms below the starting inoculum (MRSA 15903; oxacillin 0.78 μM + NC12(KNC12K)2NH2 2.1 μM): 0.76 log10 CFU/ml
- bactericidal activity, agent alone (MRSA 15903; sub-MIC time-kill, single agent): no bactericidal activity
- Oxacillin's MIC per CLSI M100-S15 (S. aureus ATCC 29213): 0.125 to 0.5 µg/mL
